Where two headings read alike, the source gives them in different places.
Assay: log P determination by HPLC on reversed-phase columns (C 18), acidic range pH 2.7
Type: physicochemical
Settings: for logP: HPLC; for chromatographic logP: reversed-phase HPLC column (C 18)
[1] = pH 2.7, only value, or main isomer
[2] = pH 2.7, second-listed (minor) isomer of the isomer mixture
[3] = pH 2.7, HPLC, pH 2.7, only value, or main isomer, read-out: logP
[4] = pH 2.7, HPLC, pH 2.7, second-listed (minor) isomer of the isomer mixture, read-out: logP
[5] = pH 2.7, pH 2.7, preparation example, minor isomer, read-out: log P (pH2.7)
[6] = pH 2.7, pH 2.7, preparation example, only value or main isomer, read-out: log P (pH2.7)

Cc1cc(C(F)(F)F)nn1CC(=O)N1CCC(c2nc(C=NOCc3ccccc3)cs2)CC1 (mixture of isomers) [I-2] gave a logP [1] of 3.63 and a logP [2] of 3.80.

In the case of Cc1cc(C(F)(F)F)nn1CC(=O)N1CCC(c2nc(C=NOC(C)c3ccccc3)cs2)CC1 (mixture of isomers) [I-3], the logP [1] is reported as 3.92 and the logP [2] is reported as 4.07.

CC(=NOc1ccccc1)c1csc(C2CCN(C(=O)Cn3nc(C(F)(F)F)cc3C)CC2)n1 (mixture of isomers) [I-4] gave a logP [1] of 4.23 and a logP [2] of 4.46.

Compound Cc1ccccc1CON=Cc1csc(C2CCN(C(=O)Cn3nc(C(F)(F)F)cc3C)CC2)n1 (mixture of isomers) [I-6] has a logP [1] of 3.96 and a logP [2] of 4.12.

In the case of Cc1cc(C(F)(F)F)nn1CC(=O)N1CCC(c2nc(C=NOCc3ccc(Cl)cc3)cs2)CC1 (mixture of isomers) [I-7], the logP [1] is reported as 4.04 and the logP [2] is reported as 4.23.

Work on Cc1cc(C(F)(F)F)nn1CC(=O)N1CCC(c2nc(C=NOC(C)c3ccc(Cl)cc3)cs2)CC1 (mixture of isomers) [I-8] yielded a logP [1] of 4.34 and a logP [2] of 4.50.

Cc1cc(C(F)(F)F)nn1CC(=O)N1CCC(c2nc(C=NOCc3ccccc3F)cs2)CC1 (mixture of isomers) [I-9] gave a logP [1] of 3.68 and a logP [2] of 3.84.

In the case of CC(=NOCc1ccccc1)c1csc(C2CCN(C(=O)Cn3nc(C(F)(F)F)cc3C)CC2)n1 (mixture of isomers) [I-10], the logP [1] is reported as 4.07 and the logP [2] is reported as 4.28.

Cc1cc(C(F)(F)F)nn1CC(=O)N1CCC(c2nc(C=NOC3CCCCC3)cs2)CC1 (mixture of isomers) [I-33] showed a logP [1] of 4.26 and a logP [2] of 4.48.

Compound O=C(Cn1nc(C(F)F)cc1C(F)F)N1CCC(c2nc(C=NOC3CCCCC3)cs2)CC1 (mixture of isomers) [I-34] has a logP [1] of 4.12 and a logP [2] of 4.33.

O=C(Cc1cc(Cl)ccc1Cl)N1CCC(c2nc(C=NOC3CCCCC3)cs2)CC1 (mixture of isomers) [I-35] showed a logP [1] of 5.10 and a logP [2] of 5.45.

Cc1cc(C(F)(F)F)nn1CC(=O)N1CCC(c2nc(C=NOCc3c(F)cccc3F)cs2)CC1 (mixture of isomers) [I-36] showed a logP [1] of 3.70 and a logP [2] of 3.86.

For O=C(Cn1nc(C(F)F)cc1C(F)F)N1CCC(c2nc(C=NOCc3c(F)cccc3F)cs2)CC1 (mixture of isomers) [I-37], the logP [1] was 3.58 and the logP [2] was 3.74.

Work on O=C(Cc1cc(Cl)ccc1Cl)N1CCC(c2nc(C=NOCc3c(F)cccc3F)cs2)CC1 (mixture of isomers) [I-38] yielded a logP [1] of 4.36 and a logP [2] of 4.60.

Compound CC(=NOCc1c(F)cccc1F)c1csc(C2CCN(C(=O)Cn3nc(C(F)(F)F)cc3C)CC2)n1 (mixture of isomers) [I-41] has a logP [1] of 4.11 and a logP [2] of 4.32.

CC(=NOCc1c(F)cccc1F)c1csc(C2CCN(C(=O)Cn3nc(C(F)F)cc3C(F)F)CC2)n1 (mixture of isomers) [I-42] gave a logP [1] of 4.00 and a logP [2] of 4.19.

With CC(=NOCc1c(F)cccc1F)c1csc(C2CCN(C(=O)Cc3cc(Cl)ccc3Cl)CC2)n1 (mixture of isomers) [I-43] the logP [1] was 4.91 and the logP [2] was 5.16.

Compound CC(=NOC1CCCCC1)c1csc(C2CCN(C(=O)Cn3nc(C(F)(F)F)cc3C)CC2)n1 (mixture of isomers) [I-44] has a logP [1] of 4.02 and a logP [2] of 4.12.

Compound CC(=NOC1CCCCC1)c1csc(C2CCN(C(=O)Cn3nc(C(F)F)cc3C(F)F)CC2)n1 (mixture of isomers) [I-45] has a logP [1] of 4.69 and a logP [2] of 4.88.

In the case of CC(=NOC1CCCCC1)c1csc(C2CCN(C(=O)Cc3cc(Cl)ccc3Cl)CC2)n1 (mixture of isomers) [I-46], the logP [1] is reported as 5.87 and the logP [2] is reported as 6.17.

Compound Cc1cc(C(F)(F)F)nn1CC(=O)N1CCC(c2nc(C=NOc3ccccc3)cs2)CC1 [I-1, 2-(1-{[5-Methyl-3-(trifluoromethyl)-1H-pyrazol-1-yl]acetyl}piperidin-4-yl)-1,3-thiazole-4-carbaldehyde O-phenyl oxime] has a chromatographic logP [3] of 3.74, a chromatographic logP [4] of 3.94 and a chromatographic logP [5] of 3.94. For the same compound, the chromatographic logP [6] was 3.74.

Work on CC(=NOC(C)c1ccccc1)c1csc(C2CCN(C(=O)Cn3nc(C(F)(F)F)cc3C)CC2)n1 (centres unmarked) [I-5, 2-[5-Methyl-3-(trifluoromethyl)-1H-pyrazol-1-yl]-1-(4-{4-[N-(1-phenylethoxy)ethanimidoyl]-1,3-thiazol-2-yl}piperidin-1-yl)ethanone] yielded a chromatographic logP [3] of 4.38, a chromatographic logP [4] of 4.54 and a chromatographic logP [5] of 4.54. It also gave a chromatographic logP [6] of 4.38.

In the case of Cc1cc(C(F)(F)F)nn1CC(=O)N1CCC(c2nc(C=NN(C)Cc3ccccn3)cs2)CC1 [I-11], the logP [1] is reported as 1.82.

In the case of Cc1cc(C(F)(F)F)nn1CC(=O)N1CCC(c2nc(C=NN(Cc3ccccc3)c3ccccc3)cs2)CC1 [I-12], the logP [1] is reported as 4.70.

Cc1cc(C(F)(F)F)nn1CC(=O)N1CCC(c2nc(C=NN(c3ccccc3)c3ccccc3)cs2)CC1 [I-13] showed a logP [1] of 4.77.

Cc1cc(C(F)(F)F)nn1CC(=O)N1CCC(c2nc(C=NN(C)c3ccc(C(F)(F)F)cn3)cs2)CC1 [I-14, 2-(1-{[5-Methyl-3-(trifluoromethyl)-1H-pyrazol-1-yl]acetyl}piperidin-4-yl)-1,3-thiazole-4-carbaldehyde methyl[5-(trifluoromethyl)pyridin-2-yl]hydrazone] showed a chromatographic logP [3] of 4.23 and a chromatographic logP [6] of 4.23.

Cc1cc(C(F)(F)F)nn1CC(=O)N1CCC(c2nc(C=NN(C)c3ccccc3)cs2)CC1 [I-15] showed a logP [1] of 3.83.

With Cc1cc(C(F)(F)F)nn1CC(=O)N1CCC(c2nc(C=NN3CCCCC3)cs2)CC1 [I-16] the logP [1] was 3.00.

With CC(=NN1CCCCC1)c1csc(C2CCN(C(=O)Cn3nc(C(F)(F)F)cc3C)CC2)n1 [I-17, 2-[5-Methyl-3-(trifluoromethyl)-1H-pyrazol-1-yl]-1-(4-{4-[N-(piperidin-1-yl)ethanimidoyl]-1,3-thiazol-2-yl}piperidin-1-yl)ethanone] the chromatographic logP [3] was 3.69 and the chromatographic logP [6] was 3.69.

Compound Cc1cc(C(F)(F)F)nn1CC(=O)N1CCC(c2nc(C=NOCc3ccccc3Cl)cs2)CC1 [I-18] has a logP [1] of 4.04.

In the case of CCCCCCON=C(C)c1csc(C2CCN(C(=O)Cn3nc(C(F)(F)F)cc3C)CC2)n1 [I-19], the logP [1] is reported as 5.13.

Compound CCCCCON=C(C)c1csc(C2CCN(C(=O)Cn3nc(C(F)(F)F)cc3C)CC2)n1 [I-20] has a logP [1] of 4.71.

Work on CC(=NOCCCc1ccccc1)c1csc(C2CCN(C(=O)Cn3nc(C(F)(F)F)cc3C)CC2)n1 [I-21] yielded a logP [1] of 4.66.

Compound CC(=NOCCCCc1ccccc1)c1csc(C2CCN(C(=O)Cn3nc(C(F)(F)F)cc3C)CC2)n1 [I-22] has a logP [1] of 4.97.

With O=C(Cn1nc(C(F)(F)F)cc1C(F)(F)F)N1CCC(c2nc(C=NOCc3ccc(Cl)cc3)cs2)CC1 [I-24] the logP [1] was 4.56.

CCc1cc(CC)n(CC(=O)N2CCC(c3nc(C=NOCc4ccc(Cl)cc4)cs3)CC2)n1 [I-25] showed a logP [1] of 3.70.

CCc1cc(C(F)(F)F)nn1CC(=O)N1CCC(c2nc(C=NOCc3ccc(Cl)cc3)cs2)CC1 [I-26] showed a logP [1] of 4.30.

With O=C(Cn1nc(C(F)F)cc1C(F)F)N1CCC(c2nc(C=NOCc3ccc(Cl)cc3)cs2)CC1 [I-27] the logP [1] was 3.90.

In the case of CC(C)(C)c1cc(C(F)(F)F)n(CC(=O)N2CCC(c3nc(C=NOCc4ccc(Cl)cc4)cs3)CC2)n1 [I-28], the logP [1] is reported as 4.99.

CC(C)(C)c1cc(C(F)(F)F)nn1CC(=O)N1CCC(c2nc(C=NOCc3ccc(Cl)cc3)cs2)CC1 [I-29] gave a logP [1] of 4.75.

In the case of CC(C)(C)c1cc(C(F)(F)C(F)(F)F)n(CC(=O)N2CCC(c3nc(C=NOCc4ccc(Cl)cc4)cs3)CC2)n1 [I-30], the logP [1] is reported as 5.31.

Compound CC(C)(C)c1cc(C(F)(F)C(F)(F)F)nn1CC(=O)N1CCC(c2nc(C=NOCc3ccc(Cl)cc3)cs2)CC1 [I-31] has a logP [1] of 5.31.

CC(C)c1cc(C(F)(F)F)n(CC(=O)N2CCC(c3nc(C=NOCc4ccc(Cl)cc4)cs3)CC2)n1 [I-32] showed a logP [1] of 4.56.

In the case of Cc1cc(C(F)(F)F)nn1CC(=O)N1CCC(c2nc(C=NOc3ccccc3Br)cs2)CC1 [I-39], the logP [1] is reported as 4.14.

O=C(Cc1cc(Cl)ccc1Cl)N1CCC(c2nc(C=NOc3ccccc3Br)cs2)CC1 [I-40] gave a logP [1] of 4.90.

Compound CC(=O)c1csc(C2CCN(C(=O)Cn3nc(C(F)(F)F)cc3C)CC2)n1 [IV-1, 1-[4-(4-Acetyl-1,3-thiazol-2-yl)piperidin-1-yl]-2-[5-methyl-3-(trifluoromethyl)-1H-pyrazol-1-yl]ethanone] has a chromatographic logP [6] of 2.25.

— patent US9215875B2 (priority 2008, dated 2015)
